Laboratory results reported in US10710978B2, “STK4 inhibitors for treatment of hematologic malignancies” (Dana-Farber Cancer Institute, Inc., priority 2015, dated 2020).
Like-named read-outs stand apart in the source and are kept apart here.

Columns and labels:
Test in all cases: KiNativ assay
Assay type in all cases: binding
[1] = molecular target: JAK1 domain2 (Homo sapiens (Human), UniProt P23458); conditions: H929 live cell
Description: (§1) Biochemical IC50s of the compounds of the present disclosure against various kinases were measured in a KiNativ assay. Compounds were screened in duplicate at 10 μM in H929 live cell. IC50 was measured via Mass spectroscopy (MS).

[2] = molecular target: SMG1 (Homo sapiens (Human), UniProt Q96Q15); conditions: H929 live cell
Description: as §1

[3] = molecular target: RSK2 domain1 (Homo sapiens (Human), UniProt P51812); conditions: H929 live cell
Description: as §1

[4] = molecular target: STLK6 (Homo sapiens (Human), UniProt Q9C0K7); conditions: H929 live cell
Description: as §1

[5] = test system: NEK6, NEK7; conditions: H929 live cell
Description: as §1

[6] = test system: PITSLRE; conditions: H929 live cell
Description: as §1

[7] = molecular target: MAP3K2 (Homo sapiens (Human), UniProt Q9Y2U5); conditions: H929 live cell
Description: as §1

[8] = molecular target: p70S6K (Homo sapiens (Human), UniProt P23443); conditions: H929 live cell
Description: as §1

[9] = molecular target: MAP3K5 (Homo sapiens (Human), UniProt Q99683); conditions: H929 live cell
Description: as §1

[10] = molecular target: MST1 (Homo sapiens (Human), UniProt Q13043); conditions: H929 live cell
Description: as §1

[11] = molecular target: PAN3 (Homo sapiens (Human), UniProt Q58A45); conditions: H929 live cell
Description: as §1

[12] = molecular target: MARK4 (Homo sapiens (Human), UniProt Q96L34); conditions: H929 live cell
Description: as §1

[13] = molecular target: GCK (Homo sapiens (Human), UniProt Q12851); conditions: H929 live cell, read-out: inhibition (10 μM)
Description: as §1

[14] = molecular target: AKT1 (Homo sapiens (Human), UniProt P31749); conditions: H929 live cell
Description: as §1

[15] = molecular target: MAP3K1 (Homo sapiens (Human), UniProt Q13233); conditions: H929 live cell
Description: as §1

[16] = molecular target: ZAK (Homo sapiens (Human), UniProt Q9NYL2); conditions: H929 live cell
Description: as §1

[17] = molecular target: NEK4 (Homo sapiens (Human), UniProt P51957); conditions: H929 live cell
Description: as §1

[18] = test system: MAP2K1, MAP2K2; conditions: 10 μM, H929 live cell
Description: as §1

[19] = molecular target: IRAK1 (Homo sapiens (Human), UniProt P51617); conditions: H929 live cell
Description: as §1

[20] = molecular target: MAP2K4 (Homo sapiens (Human), UniProt P45985); conditions: H929 live cell
Description: as §1

[21] = test system: JNK1, JNK2, JNK3; conditions: H929 live cell
Description: as §1

[22] = molecular target: IRE1 (Homo sapiens (Human), UniProt O75460); conditions: H929 live cell
Description: as §1

[23] = test system: Wnk1, Wnk2, Wnk3; conditions: H929 live cell
Description: as §1

[24] = molecular target: p70S6Kb (Homo sapiens (Human), UniProt Q9UBS0); conditions: H929 live cell
Description: as §1

[25] = test system: MST1, MST2; conditions: H929 live cell
Description: as §1

[26] = molecular target: ACK (Homo sapiens (Human), UniProt Q07912); conditions: H929 live cell
Description: as §1

[27] = molecular target: PEK (Homo sapiens (Human), UniProt Q9NZJ5); conditions: H929 live cell
Description: as §1

[28] = molecular target: JAK1 domain1 (Homo sapiens (Human), UniProt P23458); conditions: H929 live cell
Description: as §1

[29] = molecular target: SRPK2 (Homo sapiens (Human), UniProt P78362); conditions: H929 live cell
Description: as §1

[30] = molecular target: PRPK (Homo sapiens (Human), UniProt Q96S44); conditions: H929 live cell
Description: as §1

[31] = molecular target: ULK1 (Homo sapiens (Human), UniProt O75385); conditions: H929 live cell
Description: as §1

[32] = molecular target: KHS1 (Homo sapiens (Human), UniProt Q9Y4K4); conditions: H929 live cell
Description: as §1

[33] = molecular target: PKD2 (Homo sapiens (Human), UniProt Q9BZL6); conditions: H929 live cell
Description: as §1

[34] = molecular target: NuaK2 (Homo sapiens (Human), UniProt Q9H093); conditions: H929 live cell
Description: as §1

JAK1 domain1, sequence (P23458 whole entry, the tested form may be a part): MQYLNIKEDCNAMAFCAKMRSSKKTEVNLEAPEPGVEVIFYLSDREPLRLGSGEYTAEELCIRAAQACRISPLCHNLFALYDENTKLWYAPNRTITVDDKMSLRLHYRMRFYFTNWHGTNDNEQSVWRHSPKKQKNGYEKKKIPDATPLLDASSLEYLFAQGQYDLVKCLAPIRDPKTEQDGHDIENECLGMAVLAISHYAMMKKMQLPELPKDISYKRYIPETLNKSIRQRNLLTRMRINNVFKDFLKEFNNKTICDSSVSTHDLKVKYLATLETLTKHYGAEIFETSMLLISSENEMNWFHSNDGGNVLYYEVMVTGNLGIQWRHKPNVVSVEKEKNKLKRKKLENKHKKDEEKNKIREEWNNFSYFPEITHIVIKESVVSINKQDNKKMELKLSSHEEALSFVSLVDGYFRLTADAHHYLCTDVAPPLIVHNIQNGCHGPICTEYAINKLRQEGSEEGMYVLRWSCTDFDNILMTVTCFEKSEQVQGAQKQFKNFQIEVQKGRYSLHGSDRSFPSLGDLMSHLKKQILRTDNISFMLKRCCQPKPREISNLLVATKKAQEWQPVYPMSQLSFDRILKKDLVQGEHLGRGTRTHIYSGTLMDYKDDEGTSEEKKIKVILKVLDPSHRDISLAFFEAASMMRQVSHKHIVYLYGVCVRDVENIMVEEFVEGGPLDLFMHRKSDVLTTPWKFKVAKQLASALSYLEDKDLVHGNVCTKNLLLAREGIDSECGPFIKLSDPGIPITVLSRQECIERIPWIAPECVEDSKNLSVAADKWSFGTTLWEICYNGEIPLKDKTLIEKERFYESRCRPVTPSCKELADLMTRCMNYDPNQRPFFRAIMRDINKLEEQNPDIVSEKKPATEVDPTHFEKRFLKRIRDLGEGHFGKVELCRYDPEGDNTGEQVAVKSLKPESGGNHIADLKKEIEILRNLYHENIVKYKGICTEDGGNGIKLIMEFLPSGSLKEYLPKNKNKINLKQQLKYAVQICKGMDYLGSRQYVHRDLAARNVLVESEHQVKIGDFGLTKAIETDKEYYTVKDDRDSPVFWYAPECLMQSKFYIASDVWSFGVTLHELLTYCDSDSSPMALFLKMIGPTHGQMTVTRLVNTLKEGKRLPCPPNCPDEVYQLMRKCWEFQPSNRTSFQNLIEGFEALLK
JAK1 domain2, sequence (P23458 whole entry, the tested form may be a part): as above
AKT1, sequence (P31749 whole entry): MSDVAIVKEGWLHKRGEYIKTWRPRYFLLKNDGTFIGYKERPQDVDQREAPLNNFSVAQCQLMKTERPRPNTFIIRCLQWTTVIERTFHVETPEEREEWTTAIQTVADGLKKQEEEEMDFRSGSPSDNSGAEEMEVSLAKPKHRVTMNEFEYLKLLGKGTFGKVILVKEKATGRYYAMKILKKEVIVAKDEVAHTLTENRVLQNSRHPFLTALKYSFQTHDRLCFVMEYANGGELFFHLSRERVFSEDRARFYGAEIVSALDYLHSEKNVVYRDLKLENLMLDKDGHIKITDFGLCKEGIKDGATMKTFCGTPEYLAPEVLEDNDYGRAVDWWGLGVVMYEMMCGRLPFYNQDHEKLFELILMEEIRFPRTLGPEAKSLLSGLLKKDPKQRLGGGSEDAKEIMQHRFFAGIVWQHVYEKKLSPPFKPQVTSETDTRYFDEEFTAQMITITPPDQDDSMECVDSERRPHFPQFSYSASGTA
MAP3K1, sequence (Q13233 whole entry): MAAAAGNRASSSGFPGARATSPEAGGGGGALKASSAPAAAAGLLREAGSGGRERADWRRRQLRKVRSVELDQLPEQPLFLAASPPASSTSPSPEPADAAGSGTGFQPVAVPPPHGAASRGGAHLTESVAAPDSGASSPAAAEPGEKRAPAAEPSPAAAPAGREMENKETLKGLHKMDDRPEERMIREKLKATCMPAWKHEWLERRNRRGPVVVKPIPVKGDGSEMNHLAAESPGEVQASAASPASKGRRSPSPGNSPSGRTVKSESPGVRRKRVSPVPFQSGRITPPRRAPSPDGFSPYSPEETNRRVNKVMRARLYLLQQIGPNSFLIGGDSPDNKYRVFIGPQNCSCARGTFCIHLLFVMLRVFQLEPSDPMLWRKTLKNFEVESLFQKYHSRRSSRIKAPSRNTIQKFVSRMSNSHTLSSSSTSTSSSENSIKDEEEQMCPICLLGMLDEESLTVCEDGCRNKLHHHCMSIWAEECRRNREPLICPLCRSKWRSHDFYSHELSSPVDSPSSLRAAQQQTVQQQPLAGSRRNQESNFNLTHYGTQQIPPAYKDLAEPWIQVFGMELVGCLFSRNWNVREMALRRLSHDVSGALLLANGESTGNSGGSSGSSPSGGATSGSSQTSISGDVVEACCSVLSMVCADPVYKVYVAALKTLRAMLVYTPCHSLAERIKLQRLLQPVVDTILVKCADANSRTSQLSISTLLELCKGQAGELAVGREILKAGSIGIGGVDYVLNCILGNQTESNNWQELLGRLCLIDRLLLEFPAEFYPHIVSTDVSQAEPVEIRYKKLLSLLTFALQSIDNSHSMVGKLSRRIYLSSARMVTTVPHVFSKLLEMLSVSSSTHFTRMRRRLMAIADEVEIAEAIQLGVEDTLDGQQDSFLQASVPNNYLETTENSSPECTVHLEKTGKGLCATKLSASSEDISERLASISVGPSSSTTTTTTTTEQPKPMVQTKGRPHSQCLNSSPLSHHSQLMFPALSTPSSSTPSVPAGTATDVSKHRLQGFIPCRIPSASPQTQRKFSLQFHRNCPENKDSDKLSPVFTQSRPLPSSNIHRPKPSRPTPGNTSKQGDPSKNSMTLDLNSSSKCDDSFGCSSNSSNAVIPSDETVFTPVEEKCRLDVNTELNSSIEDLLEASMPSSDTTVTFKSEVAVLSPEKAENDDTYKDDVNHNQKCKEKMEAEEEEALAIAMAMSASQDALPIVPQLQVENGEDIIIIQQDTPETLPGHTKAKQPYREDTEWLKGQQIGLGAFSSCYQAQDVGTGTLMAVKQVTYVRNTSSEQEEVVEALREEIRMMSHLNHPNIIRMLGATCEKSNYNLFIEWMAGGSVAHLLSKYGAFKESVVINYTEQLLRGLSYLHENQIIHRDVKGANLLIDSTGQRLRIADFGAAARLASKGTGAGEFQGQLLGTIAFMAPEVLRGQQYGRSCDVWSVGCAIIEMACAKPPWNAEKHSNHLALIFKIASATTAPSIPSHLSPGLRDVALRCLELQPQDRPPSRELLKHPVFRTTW
KHS1, sequence (Q9Y4K4 whole entry): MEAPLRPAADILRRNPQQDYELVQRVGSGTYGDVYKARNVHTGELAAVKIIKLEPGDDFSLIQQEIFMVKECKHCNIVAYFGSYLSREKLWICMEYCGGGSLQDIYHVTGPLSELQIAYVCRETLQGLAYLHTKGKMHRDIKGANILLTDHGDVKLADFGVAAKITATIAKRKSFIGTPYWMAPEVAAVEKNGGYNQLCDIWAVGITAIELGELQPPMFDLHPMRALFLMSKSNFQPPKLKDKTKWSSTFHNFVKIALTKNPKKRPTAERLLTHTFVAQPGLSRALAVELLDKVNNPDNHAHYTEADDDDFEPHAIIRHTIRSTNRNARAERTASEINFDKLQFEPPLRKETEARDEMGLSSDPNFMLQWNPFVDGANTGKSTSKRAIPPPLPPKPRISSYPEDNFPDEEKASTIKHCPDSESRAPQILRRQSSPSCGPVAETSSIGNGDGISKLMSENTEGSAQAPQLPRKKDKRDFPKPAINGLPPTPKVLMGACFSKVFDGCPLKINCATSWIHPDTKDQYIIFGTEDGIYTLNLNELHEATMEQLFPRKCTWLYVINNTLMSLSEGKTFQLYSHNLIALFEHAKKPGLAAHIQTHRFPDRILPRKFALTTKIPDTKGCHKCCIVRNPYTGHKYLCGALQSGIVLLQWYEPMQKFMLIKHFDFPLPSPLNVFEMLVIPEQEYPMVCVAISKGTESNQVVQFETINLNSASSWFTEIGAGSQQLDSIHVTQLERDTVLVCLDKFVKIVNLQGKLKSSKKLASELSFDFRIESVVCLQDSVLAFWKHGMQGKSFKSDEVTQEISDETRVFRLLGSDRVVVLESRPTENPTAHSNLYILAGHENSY
p70S6K, sequence (P23443 whole entry): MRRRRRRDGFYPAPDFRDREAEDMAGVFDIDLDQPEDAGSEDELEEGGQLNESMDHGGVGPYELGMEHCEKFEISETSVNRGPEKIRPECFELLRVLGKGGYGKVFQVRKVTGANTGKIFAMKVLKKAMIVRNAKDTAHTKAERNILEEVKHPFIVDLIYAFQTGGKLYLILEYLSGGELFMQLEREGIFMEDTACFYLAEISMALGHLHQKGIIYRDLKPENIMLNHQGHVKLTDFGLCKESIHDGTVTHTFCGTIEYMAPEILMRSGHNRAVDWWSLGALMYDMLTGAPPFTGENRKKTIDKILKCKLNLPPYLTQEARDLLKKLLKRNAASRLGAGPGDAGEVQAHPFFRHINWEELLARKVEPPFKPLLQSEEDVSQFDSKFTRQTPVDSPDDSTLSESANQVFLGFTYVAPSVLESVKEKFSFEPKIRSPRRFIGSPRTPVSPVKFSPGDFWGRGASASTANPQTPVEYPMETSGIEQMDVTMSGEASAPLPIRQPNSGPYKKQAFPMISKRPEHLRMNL
MST1, sequence (Q13043 whole entry): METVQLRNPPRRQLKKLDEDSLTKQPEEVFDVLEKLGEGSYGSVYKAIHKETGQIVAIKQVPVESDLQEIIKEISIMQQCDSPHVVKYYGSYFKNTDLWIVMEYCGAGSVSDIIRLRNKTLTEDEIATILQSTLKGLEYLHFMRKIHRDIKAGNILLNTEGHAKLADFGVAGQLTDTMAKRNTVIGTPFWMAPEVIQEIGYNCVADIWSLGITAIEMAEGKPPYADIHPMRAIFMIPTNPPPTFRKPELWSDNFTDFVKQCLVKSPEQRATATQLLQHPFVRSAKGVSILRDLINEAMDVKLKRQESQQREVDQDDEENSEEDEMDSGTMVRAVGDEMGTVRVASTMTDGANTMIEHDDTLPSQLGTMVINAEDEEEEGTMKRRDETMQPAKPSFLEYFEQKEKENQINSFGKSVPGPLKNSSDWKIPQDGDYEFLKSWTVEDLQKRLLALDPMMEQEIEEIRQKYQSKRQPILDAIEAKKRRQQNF

Which results are given for Nc1ncc(-c2cccc([N+](=O)[O-])c2F)cc1-c1ccc2c(c1)CCNC2=O [Compound I-9, 6-(2-amino-5-(2-fluoro-3-nitrophenyl)pyridin-3-yl)-3,4-dihydroisoquinolin-1(2H)-one]?
inhibition at 10 µM ([1]; read-out: % inhibition (range)): 0%; inhibition at 10 µM ([1]; read-out: inhibition (10 μM)): -4.9%; inhibition at 10 µM ([2]; read-out: % inhibition (range)): > 90%; inhibition at 10 µM ([2]; read-out: inhibition (10 μM)): 94.7%; inhibition at 10 µM ([3]; read-out: % inhibition (range)): 50 to 75%; inhibition at 10 µM ([3]; read-out: inhibition (10 μM)): 69.9%; inhibition at 10 µM ([4]; read-out: % inhibition (range)): 0%; inhibition at 10 µM ([4]; read-out: inhibition (10 μM)): -47.7%; % inhibition (range) ([5]; 10 μM): 0.0%; inhibition (10 μM) [5]: −35.7%; % inhibition (range) ([6]; 10 μM): 35-50%; inhibition (10 μM) [6]: 38.9%; inhibition at 10 µM ([7]; read-out: % inhibition (range)): 0%; inhibition at 10 µM ([7]; read-out: inhibition (10 μM)): 0.3%; inhibition at 10 µM ([8]; read-out: % inhibition (range)): 0%; inhibition at 10 µM ([8]; read-out: inhibition (10 μM)): -71.5%; inhibition at 10 µM ([9]; read-out: % inhibition (range)): 0%; inhibition at 10 µM ([9]; read-out: inhibition (10 μM)): 30.6%; inhibition at 10 µM ([10]; read-out: % inhibition (range)): > 90%; inhibition at 10 µM ([10]; read-out: inhibition (10 μM)): 95.4%; inhibition at 10 µM ([11]; read-out: % inhibition (range)): 0%; inhibition at 10 µM ([11]; read-out: inhibition (10 μM)): -7.1%; inhibition at 10 µM ([12]; read-out: % inhibition (range)): 75 to 90%; inhibition at 10 µM ([12]; read-out: inhibition (10 μM)): > 75%; inhibition at 10 µM [13]: 91.5%; inhibition at 10 µM ([14]; read-out: % inhibition (range)): 0%; inhibition at 10 µM ([14]; read-out: inhibition (10 μM)): 32.8%; inhibition at 10 µM ([15]; read-out: % inhibition (range)): > 90%; inhibition at 10 µM ([15]; read-out: inhibition (10 μM)): 95.6%; inhibition at 10 µM ([16]; read-out: % inhibition (range)): 35 to 50%; inhibition at 10 µM ([16]; read-out: inhibition (10 μM)): 42%; inhibition at 10 µM ([17]; read-out: % inhibition (range)): 50 to 75%; inhibition at 10 µM ([17]; read-out: inhibition (10 μM)): 67%; % inhibition (range) [18]: 0.0%; inhibition at 10 µM ([19]; read-out: % inhibition (range)): 75 to 90%; inhibition at 10 µM ([19]; read-out: inhibition (10 μM)): 82.6%; inhibition at 10 µM ([20]; read-out: % inhibition (range)): 50 to 75%; inhibition at 10 µM ([20]; read-out: inhibition (10 μM)): 72.9%; % inhibition (range) ([21]; 10 μM): 0.0%; inhibition (10 μM) [21]: −24.2%; inhibition at 10 µM ([22]; read-out: % inhibition (range)): 0%; inhibition at 10 µM ([22]; read-out: inhibition (10 μM)): -50.1%; % inhibition (range) ([23]; 10 μM): >100%; inhibition (10 μM) [23]: −105.5%; inhibition at 10 µM ([24]; read-out: % inhibition (range)): 0%; inhibition at 10 µM ([24]; read-out: inhibition (10 μM)): -84.5%; % inhibition (range) ([25]; 10 μM): >90%; inhibition (10 μM) [25]: 99.0%; inhibition at 10 µM ([26]; read-out: % inhibition (range)): 0%; inhibition at 10 µM ([26]; read-out: inhibition (10 μM)): -17.3%; inhibition at 10 µM ([27]; read-out: % inhibition (range)): > 100%; inhibition at 10 µM ([27]; read-out: inhibition (10 μM)): -100%; inhibition at 10 µM ([28]; read-out: % inhibition (range)): 0%; inhibition at 10 µM ([28]; read-out: inhibition (10 μM)): -44.3%; inhibition at 10 µM ([29]; read-out: % inhibition (range)): 0%; inhibition at 10 µM ([29]; read-out: inhibition (10 μM)): 18.9%; inhibition at 10 µM ([30]; read-out: % inhibition (range)): 0%; inhibition at 10 µM ([30]; read-out: inhibition (10 μM)): -5%; inhibition at 10 µM ([31]; read-out: % inhibition (range)): 0%; inhibition at 10 µM ([31]; read-out: inhibition (10 μM)): -19.6%; inhibition at 10 µM ([32]; read-out: % inhibition (range)): 75 to 90%; inhibition at 10 µM ([32]; read-out: inhibition (10 μM)): 79.5%; inhibition at 10 µM ([33]; read-out: % inhibition (range)): 35 to 50%; inhibition at 10 µM ([33]; read-out: inhibition (10 μM)): 46.2%; inhibition at 10 µM ([34]; read-out: % inhibition (range)): 50 to 75%; inhibition at 10 µM ([34]; read-out: inhibition (10 μM)): 58.7%
